Test system: Mitochondria-located protein genes
Assay: DNA chip mRNA expression in yeast, mitochondria-located protein genes (Table 2)
Format: cell-based, Saccharomyces cerevisiae S288C
Conditions: cells incubated two hours with the chemical substance
Summary of the method: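 Values are treated/untreated fluorescence ratios from a whole-genome yeast DNA chip hybridized over 12 hours at 65° C with Cy3- or Cy5-labelled cDNA from poly(A) mRNA. Log-phase S288C yeast in YPD at 25° C had received a single toxic chemical for two hours, dosed to slow growth without killing.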

N#Cc1c(Cl)c(Cl)c(Cl)c(C#N)c1Cl [(9), 2,4,5,6-tetrachloro-1,3-benzenedicarbonitrile]
The level of expressed mRNA in the presence of chemical substance/The level of expressed mRNA in the absence of chemical substance (yeast gene YAL039C): 1.6
The level of expressed mRNA in the presence of chemical substance/The level of expressed mRNA in the absence of chemical substance (yeast gene YBL022C): 2.8
The level of expressed mRNA in the presence of chemical substance/The level of expressed mRNA in the absence of chemical substance (yeast gene YBL030C): 0.4
The level of expressed mRNA in the presence of chemical substance/The level of expressed mRNA in the absence of chemical substance (yeast gene YBL038W): 1.4
The level of expressed mRNA in the presence of chemical substance/The level of expressed mRNA in the absence of chemical substance (yeast gene YBL099W): 0.9
The level of expressed mRNA in the presence of chemical substance/The level of expressed mRNA in the absence of chemical substance (yeast gene YBR003W): 1.0
The level of expressed mRNA in the presence of chemical substance/The level of expressed mRNA in the absence of chemical substance (yeast gene YBR044C): 0.8
The level of expressed mRNA in the presence of chemical substance/The level of expressed mRNA in the absence of chemical substance (yeast gene YBR091C): 0.7
The level of expressed mRNA in the presence of chemical substance/The level of expressed mRNA in the absence of chemical substance (yeast gene YBR122C): 1.1
The level of expressed mRNA in the presence of chemical substance/The level of expressed mRNA in the absence of chemical substance (yeast gene YBR185C): 0.9
The level of expressed mRNA in the presence of chemical substance/The level of expressed mRNA in the absence of chemical substance (yeast gene YBR221C): 1.0
The level of expressed mRNA in the presence of chemical substance/The level of expressed mRNA in the absence of chemical substance (yeast gene YBR251W): 0.5
The level of expressed mRNA in the presence of chemical substance/The level of expressed mRNA in the absence of chemical substance (yeast gene YBR282W): 1.0
The level of expressed mRNA in the presence of chemical substance/The level of expressed mRNA in the absence of chemical substance (yeast gene YCL057W): 4.2
The level of expressed mRNA in the presence of chemical substance/The level of expressed mRNA in the absence of chemical substance (yeast gene YCR046C): 1.9
The level of expressed mRNA in the presence of chemical substance/The level of expressed mRNA in the absence of chemical substance (yeast gene YCR083W): 1.8
The level of expressed mRNA in the presence of chemical substance/The level of expressed mRNA in the absence of chemical substance (yeast gene YDL067C): 0.9
The level of expressed mRNA in the presence of chemical substance/The level of expressed mRNA in the absence of chemical substance (yeast gene YDL181W): 0.7
The level of expressed mRNA in the presence of chemical substance/The level of expressed mRNA in the absence of chemical substance (yeast gene YDL198C): 1.9
The level of expressed mRNA in the presence of chemical substance/The level of expressed mRNA in the absence of chemical substance (yeast gene YDR079W): 0.9
The level of expressed mRNA in the presence of chemical substance/The level of expressed mRNA in the absence of chemical substance (yeast gene YDR178W): 0.9
The level of expressed mRNA in the presence of chemical substance/The level of expressed mRNA in the absence of chemical substance (yeast gene YDR231C): 1.5
The level of expressed mRNA in the presence of chemical substance/The level of expressed mRNA in the absence of chemical substance (yeast gene YDR258C): 4.9
The level of expressed mRNA in the presence of chemical substance/The level of expressed mRNA in the absence of chemical substance (yeast gene YDR298C): 1.0
The level of expressed mRNA in the presence of chemical substance/The level of expressed mRNA in the absence of chemical substance (yeast gene YDR347W): 0.8
The level of expressed mRNA in the presence of chemical substance/The level of expressed mRNA in the absence of chemical substance (yeast gene YDR377W): 1.0
The level of expressed mRNA in the presence of chemical substance/The level of expressed mRNA in the absence of chemical substance (yeast gene YDR529C): 0.5
The level of expressed mRNA in the presence of chemical substance/The level of expressed mRNA in the absence of chemical substance (yeast gene YEL024W): 0.7
The level of expressed mRNA in the presence of chemical substance/The level of expressed mRNA in the absence of chemical substance (yeast gene YEL039C): 1.2
The level of expressed mRNA in the presence of chemical substance/The level of expressed mRNA in the absence of chemical substance (yeast gene YER178W): 1.7
The level of expressed mRNA in the presence of chemical substance/The level of expressed mRNA in the absence of chemical substance (yeast gene YFL016C): 6.4
The level of expressed mRNA in the presence of chemical substance/The level of expressed mRNA in the absence of chemical substance (yeast gene YGL018C): 0.5
The level of expressed mRNA in the presence of chemical substance/The level of expressed mRNA in the absence of chemical substance (yeast gene YGL187C): 0.6
The level of expressed mRNA in the presence of chemical substance/The level of expressed mRNA in the absence of chemical substance (yeast gene YGL191W): 1.1
The level of expressed mRNA in the presence of chemical substance/The level of expressed mRNA in the absence of chemical substance (yeast gene YGR008C): 3.1
The level of expressed mRNA in the presence of chemical substance/The level of expressed mRNA in the absence of chemical substance (yeast gene YGR028W): 1.7
The level of expressed mRNA in the presence of chemical substance/The level of expressed mRNA in the absence of chemical substance (yeast gene YGR062C): 1.0
The level of expressed mRNA in the presence of chemical substance/The level of expressed mRNA in the absence of chemical substance (yeast gene YGR076C): 1.2
The level of expressed mRNA in the presence of chemical substance/The level of expressed mRNA in the absence of chemical substance (yeast gene YGR082W): 0.6
The level of expressed mRNA in the presence of chemical substance/The level of expressed mRNA in the absence of chemical substance (yeast gene YGR174C): 1.8
The level of expressed mRNA in the presence of chemical substance/The level of expressed mRNA in the absence of chemical substance (yeast gene YGR244C): 1.4
The level of expressed mRNA in the presence of chemical substance/The level of expressed mRNA in the absence of chemical substance (yeast gene YHR008C): 1.7
The level of expressed mRNA in the presence of chemical substance/The level of expressed mRNA in the absence of chemical substance (yeast gene YIL155C): 2.5
The level of expressed mRNA in the presence of chemical substance/The level of expressed mRNA in the absence of chemical substance (yeast gene YJL096W): 1.0
The level of expressed mRNA in the presence of chemical substance/The level of expressed mRNA in the absence of chemical substance (yeast gene YJL102W): 3.1
The level of expressed mRNA in the presence of chemical substance/The level of expressed mRNA in the absence of chemical substance (yeast gene YJL133W): 0.6
The level of expressed mRNA in the presence of chemical substance/The level of expressed mRNA in the absence of chemical substance (yeast gene YJL166W): 1.3
The level of expressed mRNA in the presence of chemical substance/The level of expressed mRNA in the absence of chemical substance (yeast gene YJL180C): 1.4
The level of expressed mRNA in the presence of chemical substance/The level of expressed mRNA in the absence of chemical substance (yeast gene YJR045C): 3.2
The level of expressed mRNA in the presence of chemical substance/The level of expressed mRNA in the absence of chemical substance (yeast gene YJR077C): 0.4

Source: US8192962B2, “Processes for detecting toxic substances” (Daikin Industries, Ltd., priority 2001, dated 2012)
